Earlier results on one compound are cited in patent publication US20180242917A1, “SYSTEMS AND METHODS FOR DETERMINING IMAGE QUALITY AND MODELS BASED ON CONTRAST INJECTION PROTOCOLS” (Duke University, priority 2015, published 2018).

On the set-up of this data set: unit not given here. The note with it: used to calculate total EC fluid volume (18.9 L incl. 3 L plasma) for a 70-kg adult patient.

For `CC(=O)N(CC(O)CO)c1c(I)c(C(=O)NCC(O)CO)c(I)c(C(=O)NCC(O)CO)c1I` (stereo not shown) [iohexol], the “apparent volume value of distribution” value is on record as 0.27.
